# Results published in US20120225054A1, “USE OF LEGUME EXTRACTS FOR INDUCING AND ENHANCING AUTOPHAGY AND APOPTOSIS AND FOR PREVENTING AND/OR TREATING CANCERS” (HERBAL BON BIOTECH INC., priority 2011, published 2012).
# Assays:
# human HCC Hep 3B cells = assay: Flow cytometric analysis of apoptotic cells with autophagy inhibitor, Hep 3B; format: cell-based; settings: 10 mM 3-MA pretreatment 2 h, SC-1 265 μg/ml
# Experimental: (§1) Cells (2×10^5) grown in 6-well plates were pretreated with or without 10 mM of autophagy inhibitor 3-methyladenine (3-MA; Sigma, St. Louis, Mo.) for 2 h prior to the addition of SC-1 (265 μg/ml). The cells were harvested, centrifuged at 800g for 10 min at 4° C., and resuspended in HBS containing 40 μg/ml of propidium iodide and […] RNase A for 30 min at 37° C. in the dark. Measurement of apoptotic cells was performed using a FACScan flow cytometer (Becton Dickison, Mountain View, Calif., USA).
# To confirm the importance of autophagy in the proceeding of apoptosis, autophagy inhibitor 3-MA was added to the cell culture and the relative portion of apoptotic cells was analyzed by flow cytometry. […] In FIG. 5B, it inhibited the fermented soybean extracts-induced apoptosis of Hep 3B cells approximately 42% at 48 h and 60% at 72 h. Therefore, it would not be surprised that the induction of apoptosis was observed only in combination with autophagy in tumors obtained from the mice received the fermented soybean extracts for a relatively long period of time (FIGS. 4A and B).
# [1] = system: murine hepatoma ML-1 cells; assay: Flow cytometric analysis of apoptotic cells with autophagy inhibitor, ML-1; format: cell-based; settings: 10 mM 3-MA pretreatment 2 h, SC-1 265 μg/ml
# Experimental: Murine ML-1 cells obtained from Dr. Huan-Yao Lei (Department of Microbiology and Immunology, Medical College, National Cheng Kung University, Tainan, Taiwan) were cultured in complete Dulbecco's modified Eagle medium (DMEM; GIBCO BRL, Grand Island, N.Y.) containing 10% fetal bovine serum (GIBCO BRL), 2 mM glutamine (Sigma, St. Louis, Mo.), 100 U/ml penicillin (Sigma), and 100 μg/ml streptomycin (Sigma) at 37° C. in a 5% CO2 humidified atmosphere.
# as §1
# To confirm the importance of autophagy in the proceeding of apoptosis, autophagy inhibitor 3-MA was added to the cell culture and the relative portion of apoptotic cells was analyzed by flow cytometry. […] In FIG. 5B, it inhibited the fermented soybean extracts-induced apoptosis of Hep 3B cells approximately 42% at 48 h and 60% at 72 h. […]
smiles,measurement,setting,value
"Cn1cnc(N)c2ncnc1-2 [3-MA, 3-methyladenine]",inhibition of fermented soybean extracts-induced apoptosis,human HCC Hep 3B cells; 48 h,approximately 42%
same,inhibition of fermented soybean extracts-induced apoptosis,human HCC Hep 3B cells; 72 h,~60%
same,inhibition of fermented soybean extracts-induced apoptosis,[1]; 48 h,approximately 45%
same,inhibition of fermented soybean extracts-induced apoptosis,[1]; 72 h,~52%
